{"source": "patent US4567175A", "about": "“8-Chloro-1,5-benzothiazepine derivatives” (Tanabe Seiyaku Co., Ltd., priority 1983, dated 1986)", "key": {"[1]": {"test_system": "isolated heart of guinea pig", "test": "Coronary vasodilating activity: Langendorff's method, coronary blood flow of isolated guinea pig heart (Experiment 4)", "settings": "for Coronary vasodilating activity (increase in coronary blood flow): isolated guinea pig heart, Langendorff, 30° C.", "procedure": "Langendorff's method was used for testing the effect on the coronary blood flow of the isolated heart of guinea pig (about 280 g). The isolated heart was perfused with Locke-Ringer solution containing 2% of defibrinated rabbit blood, which had been saturated with a mixed gas of 95% O2 and 5% CO2 (30° C.). Perfusion pressure was kept at 40 cm H2 O. A solution of a test compound in an aqueous 5% glucose solution was injected into the perfusing solution at a volume of 0.1 ml per heart. The overflow of the perfusate was measured by means of a drop counter.\nThe coronary vasodilating activity of the test compound was expressed as \"±\" if the increase in coronary blood flow is less than 0.5 ml/minute at a dose of 100 μg/heart; \"+\" if the increase is not less than 0.5 ml/minute at a dose of 100 μg/heart; \"++\" if the increase is not less than 0.5 ml/minute at a dose of 30 μg/heart; and \"+++\" if the increase is not less than 0.5 ml/minute at a dose of not more than 10 μg/heart."}, "[2]": {"test_system": "spontaneously hypertensive rats (SHR)", "test": "Hypotensive activity, oral administration to SHR, systolic blood pressure by tail plethysmography (Experiment 1)", "format": "in vivo", "settings": "30 mg/kg oral", "procedure": "A test compound (dose: 30 mg/kg) dissolved or suspended in water was administered orally to spontaneously hypertensive rats (SHR) (one group: 3 rats) fasted overnight. The systolic blood pressure of the rats was measured by the tail plethysmographic technique (The Journal of Laboratory and Clinical Medicine 78(1971), page 957). The hypotensive activity of the test compound was estimated at one or 4 hours after dosing and expressed as \"-\" if the decrease in blood pressure is less than 10 mm Hg; \"+\" if the decrease is not less than 10 mm Hg but less than 20 mm Hg; \"++\" if the decrease is not less than 20 mm Hg but less than 40 mm Hg; \"+++\" if the decrease is not less than 40 mm Hg but less than 60 mm Hg; or \"++++\" if the decrease is not less than 60 mm Hg."}, "platelet aggregation": {"test_system": "platelet aggregation", "test": "Platelet aggregation-inhibiting activity, collagen-induced aggregation in rat platelet-rich plasma, Born's method (Experiment 5)", "format": "cell-based, male Sprague-Dawley rats", "design": "key: -: less than 10% inhibition of platelet aggregation; +: not less than 10% inhibition of platelet aggregation but said percentage inhibition was lower than that of acetylsalicylic acid (100 μg/ml); ++: platelet aggregation-inhibiting activity at least as strong as that of acetylsalicylic acid (100 μg/ml)", "settings": "final concentration 100 μg/ml, rat PRP, 37° C.", "source_text": "Blood was collected from the abdominal aorta of male Sprague-Dawley rats which were anesthetized with ether. Nine volumes of rat blood were mixed with one volume of an aqueous trisodium citrate solution, and the mixture was centrifuged to give platelet-rich plasma (\"PRP\") as the supernatant solution. The bottom layer was further centrifuged to give platelet-poor plasma (\"PPP\") as the supernatant solution. Platelet counts were adjusted to 0.8-1×10^6 /mm^3 for PRP by dilution with PPP. After a mixture of 200 μl of the diluted PRP and 25 μl of a test compound solution (final concentration: 100 μg/ml) was stirred for 2 minutes at 37° C., 25 μl of a collagen solution [Biochim. Biophys. Acta, 186, page 254(1969)] were added thereto. The degree of platelet aggregation was estimated by Born's method [Nature, 194, page 927(1962)] and the percentage inhibition of platelet aggregation was calculated therefrom."}, "vertebral artery [3]": {"test_system": "vertebral artery", "test": "Cerebral vasodilating activity: vertebral artery blood flow in anesthetized dogs, intraarterial injection, potency ratio to papaverine (Experiment 2)", "format": "in vivo", "settings": "for Cerebral vasodilating activity (potency ratio): injected into vertebral artery, potency ratio to papaverine from dose-response curves; for increase in vertebral artery blood flow (in words) / cerebral vasodilating activity, times stronger than the 7-chloro derivative: intraarterial; for cerebral vasodilating activity, times stronger than the 7-chloro derivative: versus (+)-cis-...-7-chloro-... hydrochloride (so in the source)", "procedure": "On the other hand, when the coronary vasodilating activity is estimated by the Langendorff method using isolated hearts of guinea pigs, said activity of (+)-cis-2-(4-methoxyphenyl)-3-acetoxy-5-[2-(dimethylamino)ethyl]-8-chloro- 2,3-dihydro-1,5-benzothiazepin-4(5H)-one hydrochloride is about 10 times stronger than that of papaverine.\nMale dogs weighing 10 to 20 kg were anesthetized with sodium pentobarbital (30 mg/kg, intravenous injection). The blood flow in vertebral artery was measured continuously by means of an electromagnetic flowmeter under artificial respiration. A test compound dissolved in an aqueous 5% glucose solution was injected into vertebral artery. The cerebral vasodilating activity of the test compound was estimated in terms of the potency ratio of said compound to papaverine, which was calculated from the dose-response curves thereof."}, "[4]": {"test": "Acute toxicity (LD50), oral administration to mice", "settings": "mouse, in vivo", "procedure": "For example, the acute toxicity (LD50) of (+)-cis-2-(4-methoxyphenyl)-3-acetoxy-5-[2-(dimethylamino)ethyl]-8-chloro- 2,3-dihydro-1,5-benzothiazepin-4(5H)-one hydrochloride when orally administered to mice is more than 1000 mg/kg."}, "vertebral artery [5]": {"test_system": "vertebral artery", "test": "Cerebral vasodilating activity: increase in vertebral artery blood flow in anesthetized dogs after femoral vein injection (Experiment 3)", "format": "in vivo", "settings": "200 μg/kg into femoral vein", "procedure": "Male dogs weighing about 20-24 kg (one group: 2 dogs) were anesthetized with sodium pentobarbital (35 mg/kg, intravenous injection). The blood flow in vertebral artery was measured by means of an electromagnetic flowmeter under artificial respiration. A test compound (i.e., (+)-cis-2-(4-methoxyphenyl)-3-acetoxy-5-[2-(dimethylamino)ethyl]-8-chloro- 2,3-dihydro-1,5-benzothiazepin-4(5H)-one hydrochloride) in a physiological saline solution was injected into the femoral vein at a dose of 200 μg/kg. The cerebral vasodilating activity of the test compound was estimated in terms of \"increase (Δml/minute) in vertebral artery blood flow\" which was calculated by subtracting \"the blood flow measured immediately before injection of test compound\" from \"the blood flow measured at a period of time after injection of test compound\"."}}, "data": [{"smiles": "COc1ccc(Cc2nccc3cc(OC)c(OC)cc23)cc1OC", "note": "[Papaverine, reference compound]", "values": [{"measurement": "Coronary vasodilating activity (increase in coronary blood flow)", "setting": "[1]", "value": "+ (increase is not less than 0.5 ml/minute at a dose of 100 μg/heart)"}]}, {"smiles": "CCN(C)CCN1C(=O)[C@H](OC(C)=O)[C@H](c2ccc(OC)cc2)Sc2cc(Cl)ccc21.Cl", "note": "(racemic) [(±)-cis-2-(4-methoxyphenyl)-3-acetoxy-5-[2-(N-methyl-N-ethylamino)ethyl]-8-chloro-2,3-dihydro-1,5-benzothiazepin-4(5H)-one hydrochloride]", "values": [{"measurement": "Hypotensive activity (decrease in blood pressure), 1 hr after dosing", "setting": "[2]", "value": "+++ (decrease is not less than 40 mm Hg but less than 60 mm Hg)"}, {"measurement": "Hypotensive activity (decrease in blood pressure), 4 hrs after dosing", "setting": "[2]", "value": "+++ (decrease is not less than 40 mm Hg but less than 60 mm Hg)"}]}, {"smiles": "CCC(=O)O[C@H]1C(=O)N(CCN(C)C)c2ccc(Cl)cc2S[C@H]1c1ccc(OC)cc1.O=C(O)C(=O)O", "note": "(single isomer, unassigned) [(+)-cis-2-(4-methoxyphenyl)-3-propionyloxy-5-[2-(dimethylamino)ethyl]-8-chloro-2,3-dihydro-1,5-benzothiazepin-4(5H)-one oxalate]", "values": [{"measurement": "Platelet aggregation-inhibiting activity", "setting": "platelet aggregation", "value": "++"}, {"measurement": "Cerebral vasodilating activity (potency ratio)", "setting": "vertebral artery [3]", "value": 23.7}, {"measurement": "increase in vertebral artery blood flow (in words)", "setting": "vertebral artery [3]", "value": "remarkable increase"}, {"measurement": "cerebral vasodilating activity, times stronger than the 7-chloro derivative", "setting": "vertebral artery [3]", "value": "about 5 times"}]}, {"smiles": "COc1ccc([C@@H]2Sc3cc(Cl)ccc3N(CCN(C)C)C(=O)[C@@H]2OC(C)=O)cc1.Cl", "note": "(racemic) [(±)-cis-2-(4-methoxyphenyl)-3-acetoxy-5-[2-(dimethylamino)ethyl]-8-chloro-2,3-dihydro-1,5-benzothiazepin-4(5H)-one hydrochloride]", "values": [{"measurement": "Platelet aggregation-inhibiting activity", "setting": "platelet aggregation", "value": "++"}, {"measurement": "Coronary vasodilating activity (increase in coronary blood flow)", "setting": "[1]", "value": "+++ (increase is not less than 0.5 ml/minute at a dose of not more than 10 μg/heart)"}, {"measurement": "Hypotensive activity (decrease in blood pressure), 1 hr after dosing", "setting": "[2]", "value": "++ (decrease is not less than 20 mm Hg but less than 40 mm Hg)"}, {"measurement": "Hypotensive activity (decrease in blood pressure), 4 hrs after dosing", "setting": "[2]", "value": "++++ (decrease is not less than 60 mm Hg)"}]}, {"smiles": "COc1ccc([C@@H]2Sc3cc(Cl)ccc3N(CCN(C)C)C(=O)[C@@H]2O)cc1.O=C(O)C(=O)O", "note": "(single isomer, unassigned) [(+)-cis-2-(4-methoxyphenyl)-3-hydroxy-5-[2-(dimethylamino)ethyl]-8-chloro-2,3-dihydro-1,5-benzothiazepin-4(5H)-one oxalate]", "values": [{"measurement": "Platelet aggregation-inhibiting activity", "setting": "platelet aggregation", "value": "++"}]}, {"smiles": "CCN(CC)CCN1C(=O)[C@H](OC(C)=O)[C@H](c2ccc(OC)cc2)Sc2cc(Cl)ccc21.O=C(O)C(=O)O", "note": "(single isomer, unassigned) [(+)-cis-2-(4-methoxyphenyl)-3-acetoxy-5-[2-(diethylamino)ethyl]-8-chloro-2,3-dihydro-1,5-benzothiazepin-4(5H)-one oxalate]", "values": [{"measurement": "Platelet aggregation-inhibiting activity", "setting": "platelet aggregation", "value": "++"}]}, {"smiles": "COc1ccc([C@@H]2Sc3cc(Cl)ccc3N(CCN(C)C)C(=O)[C@@H]2OC(C)=O)cc1.Cl", "note": "(single isomer, unassigned) [(+)-cis-2-(4-methoxyphenyl)-3-acetoxy-5-[2-(dimethylamino)ethyl]-8-chloro-2,3-dihydro-1,5-benzothiazepin-4(5H)-one hydrochloride]", "values": [{"measurement": "coronary vasodilating activity, times stronger than papaverine", "setting": "[1]; Langendorff method, isolated hearts of guinea pigs, versus papaverine", "value": "about 10 times"}, {"measurement": "Coronary vasodilating activity (increase in coronary blood flow)", "setting": "[1]", "value": "+++ (increase is not less than 0.5 ml/minute at a dose of not more than 10 μg/heart)"}, {"measurement": "LD50", "setting": "[4]", "value": "> 1000", "unit": "mg/kg"}, {"measurement": "Cerebral vasodilating activity (potency ratio)", "setting": "vertebral artery [3]", "value": 25}, {"measurement": "increase in vertebral artery blood flow (in words)", "setting": "vertebral artery [3]", "value": "remarkable increase"}, {"measurement": "cerebral vasodilating activity, times stronger than the 7-chloro derivative", "setting": "vertebral artery [3]", "value": "about 5 times"}, {"measurement": "Increase in vertebral artery blood flow, 1 minute", "setting": "vertebral artery [5]; 1 minute after injection", "value": "58 Δml/minute"}, {"measurement": "Increase in vertebral artery blood flow, 3 minutes", "setting": "vertebral artery [5]; 3 minutes after injection", "value": "53 Δml/minute"}, {"measurement": "Increase in vertebral artery blood flow, 5 minutes", "setting": "vertebral artery [5]; 5 minutes after injection", "value": "52 Δml/minute"}, {"measurement": "Increase in vertebral artery blood flow, 10 minutes", "setting": "vertebral artery [5]; 10 minutes after injection", "value": "38 Δml/minute"}, {"measurement": "Increase in vertebral artery blood flow, 20 minutes", "setting": "vertebral artery [5]; 20 minutes after injection", "value": "21 Δml/minute"}, {"measurement": "Increase in vertebral artery blood flow, 30 minutes", "setting": "vertebral artery [5]; 30 minutes after injection", "value": "14 Δml/minute"}]}, {"smiles": "COc1ccc([C@@H]2Sc3cc(Cl)ccc3N(CCN(C)C)C(=O)[C@@H]2OC(C)=O)cc1.O=C(O)/C=C\\C(=O)O", "note": "(single isomer, unassigned) [(+)-cis-2-(4-methoxyphenyl)-3-acetoxy-5-[2-(dimethylamino)ethyl]-8-chloro-2,3-dihydro-1,5-benzothiazepin-4(5H)-one maleate]", "values": [{"measurement": "Hypotensive activity (decrease in blood pressure), 1 hr after dosing", "setting": "[2]", "value": "++++ (decrease is not less than 60 mm Hg)"}, {"measurement": "decrease in blood pressure, 4 hours after administration", "setting": "[2]; 4 hours", "value": "~68", "unit": "mm Hg"}, {"measurement": "Hypotensive activity (decrease in blood pressure), 4 hrs after dosing", "setting": "[2]", "value": "++++ (decrease is not less than 60 mm Hg)"}, {"measurement": "decrease in blood pressure, one hour after administration", "setting": "[2]; one hour", "value": "about 86 mm Hg"}]}, {"smiles": "COc1ccc([C@@H]2Sc3ccc(Cl)cc3N(CCN(C)C)C(=O)[C@@H]2OC(C)=O)cc1.Cl", "note": "(racemic) [(±)-cis-2-(4-methoxyphenyl)-3-acetoxy-5-[2-(dimethylamino)ethyl]-7-chloro-2,3-dihydro-1,5-benzothiazepin-4(5H)-one hydrochloride, reference compound]", "values": [{"measurement": "Cerebral vasodilating activity (potency ratio)", "setting": "vertebral artery [3]", "value": 5}, {"measurement": "Hypotensive activity (decrease in blood pressure), 1 hr after dosing", "setting": "[2]", "value": "- (decrease in blood pressure is less than 10 mm Hg)"}, {"measurement": "Hypotensive activity (decrease in blood pressure), 4 hrs after dosing", "setting": "[2]", "value": "++ (decrease is not less than 20 mm Hg but less than 40 mm Hg)"}]}, {"smiles": "CCCN(C)CCN1C(=O)[C@H](OC(C)=O)[C@H](c2ccc(OC)cc2)Sc2cc(Cl)ccc21.O=C(O)C(=O)O", "note": "(racemic) [(±)-cis-2-(4-methoxyphenyl)-3-acetoxy-5-[2-(N-methyl-N-n-propylamino)ethyl]-8-chloro-2,3-dihydro-1,5-benzothiazepin-4(5H)-one oxalate]", "values": [{"measurement": "Platelet aggregation-inhibiting activity", "setting": "platelet aggregation", "value": "++"}, {"measurement": "Coronary vasodilating activity (increase in coronary blood flow)", "setting": "[1]", "value": "+++ (increase is not less than 0.5 ml/minute at a dose of not more than 10 μg/heart)"}]}]}
